The results in this text go back to patent publication US9999619B2, “Piperidin-4-yl azetidine derivatives as JAK1 inhibitors” (Incyte Corporation, priority 2010, dated 2018).

What all share (type): biochemical
In assay [1] the target is human JAK1 (a.a. 837-1142) (Homo sapiens, UniProt P23458). The experiment in a line: In vitro JAK kinase assay (HTRF, phosphorylation of a biotinylated peptide), JAK1. To be noted: measured at 1 mM ATP. A digest of the protocol:
(§1)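 N-terminal His-tagged catalytic domains, baculovirus-expressed in insect cells, phosphorylated a biotinylated peptide for 1 hr at room temperature. EDTA stop was followed by SA-APC and Eu-Py20 antibody for 40 minutes, with phosphopeptide read by HTRF.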
For orientation: In TR-FRET formats the signal depends on donor and acceptor labels being close together.

The target of assay [2] is human JAK1 (a.a. 837-1142). Described as above. The following applies: ratio of JAK2 IC50 to JAK1 IC50, measured at 1 mM ATP. An outline of the steps:
as §1

The target in assay [3] is Jak2 (a.a. 828-1132) (Homo sapiens (Human), UniProt O60674). The experiment in a line: In vitro JAK kinase assay (HTRF, phosphorylation of a biotinylated peptide), JAK2. To be noted: measured at 1 mM ATP. A digest of the protocol:
as §1

Sequence of Jak2 (a.a. 828-1132) (O60674 828-1132): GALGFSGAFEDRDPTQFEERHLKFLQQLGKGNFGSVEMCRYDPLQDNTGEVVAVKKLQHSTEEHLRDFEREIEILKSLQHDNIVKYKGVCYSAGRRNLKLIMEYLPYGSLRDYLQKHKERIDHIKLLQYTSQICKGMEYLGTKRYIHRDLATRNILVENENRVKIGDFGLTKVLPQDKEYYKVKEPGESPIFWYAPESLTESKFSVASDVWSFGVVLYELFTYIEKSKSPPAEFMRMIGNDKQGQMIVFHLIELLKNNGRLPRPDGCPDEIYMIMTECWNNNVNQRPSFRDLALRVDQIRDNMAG

As a reminder, the IC50 is the point on the concentration scale where inhibition reaches its midpoint. Lower therefore signals greater potency. On to `N#CCC1(n2ccc(-c3ncnc4[nH]ccc34)c2)CN(C2CCN(C(=O)c3cccs3)CC2)C1` [Example 271, {3-[3-(7H-pyrrolo[2,3-d]pyrimidin-4-yl)-1H-pyrrol-1-yl]-1-[1-(2-thienylcarbonyl)piperidin-4-yl]azetidin-3-yl}acetonitrile], for which the IC50 in assay [1] is no more than 5 nM; in assay [3], 10 to 50 nM. The “IC50 Ratio JAK2/JAK1” value in assay [2] was found to be 7.8.
The corresponding values for `N#CCC1(n2ccc(-c3ncnc4[nH]ccc34)c2)CN(C2CCN(C(=O)c3ccc(C(F)(F)F)cc3F)CC2)C1` [Example 272, {1-{1-[2-fluoro-4-(trifluoromethyl)benzoyl]piperidin-4-yl}-3-[3-(7H-pyrrolo[2,3-d]pyrimidin-4-yl)-1H-pyrrol-1-yl]azetidin-3-yl}acetonitrile] are 5 to 20 nM, 10 to 50 nM and 6.5.
The corresponding values for `N#CCC1(n2ccc(-c3ncnc4[nH]ccc34)c2)CN(C2CCN(C(=O)c3cc(C(F)(F)F)ccc3F)CC2)C1` [Example 273, {1-{1-[2-fluoro-5-(trifluoromethyl)benzoyl]piperidin-4-yl}-3-[3-(7H-pyrrolo[2,3-d]pyrimidin-4-yl)-1H-pyrrol-1-yl]azetidin-3-yl}acetonitrile] are no more than 5 nM, no more than 10 nM and 4.4.
In the same order, the values of `N#CCC1(n2ccc(-c3ncnc4[nH]ccc34)c2)CN(C2CCN(C(=O)c3cc(F)cc(C(F)(F)F)c3)CC2)C1` [Example 274, {1-{1-[3-fluoro-5-(trifluoromethyl)benzoyl]piperidin-4-yl}-3-[3-(7H-pyrrolo[2,3-d]pyrimidin-4-yl)-1H-pyrrol-1-yl]azetidin-3-yl}acetonitrile] are no more than 5 nM, 10 to 50 nM and 9.0.
Take `N#CCC1(n2ccc(-c3ncnc4[nH]ccc34)c2)CN(C2CCN(C(=O)c3ccc(F)c(C(F)(F)F)c3)CC2)C1` [Example 275, {1-{1-[4-fluoro-3-(trifluoromethyl)benzoyl]piperidin-4-yl}-3-[3-(7H-pyrrolo[2,3-d]pyrimidin-4-yl)-1H-pyrrol-1-yl]azetidin-3-yl}acetonitrile]: the results for the IC50 in assay [1] and in assay [3] were 5 to 20 nM and 10 to 50 nM, respectively. Moreover, in assay [2], the “IC50 Ratio JAK2/JAK1” value came out at 3.1.
In the same order, the values of `N#CCC1(n2ccc(-c3ncnc4[nH]ccc34)c2)CN(C2CCN(C(=O)c3cccc(F)c3F)CC2)C1` [Example 276, {1-[1-(2,3-difluorobenzoyl)piperidin-4-yl]-3-[3-(7H-pyrrolo[2,3-d]pyrimidin-4-yl)-1H-pyrrol-1-yl]azetidin-3-yl}acetonitrile] are no more than 5 nM, no more than 10 nM and 4.0.
The corresponding values for `N#CCC1(n2ccc(-c3ncnc4[nH]ccc34)c2)CN(C2CCN(C(=O)c3ccc(F)c(F)c3)CC2)C1` [Example 277, {1-[1-(3,4-difluorobenzoyl)piperidin-4-yl]-3-[3-(7H-pyrrolo[2,3-d]pyrimidin-4-yl)-1H-pyrrol-1-yl]azetidin-3-yl}acetonitrile] are no more than 5 nM, 10 to 50 nM and 9.8.
The corresponding values for `N#CCC1(n2ccc(-c3ncnc4[nH]ccc34)c2)CN(C2CCN(C(=O)c3cc(F)ccc3F)CC2)C1` [Example 278, {1-[1-(2,5-difluorobenzoyl)piperidin-4-yl]-3-[3-(7H-pyrrolo[2,3-d]pyrimidin-4-yl)-1H-pyrrol-1-yl]azetidin-3-yl}acetonitrile] are no more than 5 nM, no more than 10 nM and 5.6.
Turning to `N#CCC1(n2ccc(-c3ncnc4[nH]ccc34)c2)CN(C2CCN(C(=O)c3c(F)cccc3F)CC2)C1` [Example 279, {1-[1-(2,6-difluorobenzoyl)piperidin-4-yl]-3-[3-(7H-pyrrolo[2,3-d]pyrimidin-4-yl)-1H-pyrrol-1-yl]azetidin-3-yl}acetonitrile], the IC50 in assay [1] is no more than 5 nM; in assay [3], no more than 10 nM. Moreover, the “IC50 Ratio JAK2/JAK1” value in assay [2] is recorded as 4.1.
With `N#CCC1(n2ccc(-c3ncnc4[nH]ccc34)c2)CN(C2CCN(C(=O)c3ccc(F)c(F)c3F)CC2)C1` [Example 280, {3-[3-(7H-pyrrolo[2,3-d]pyrimidin-4-yl)-1H-pyrrol-1-yl]-1-[1-(2,3,4-trifluorobenzoyl)piperidin-4-yl]azetidin-3-yl}acetonitrile], the concentration for half-maximal inhibition (IC50) in assay [1] was no more than 5 nM; in assay [3] it was no more than 10 nM. The “IC50 Ratio JAK2/JAK1” value in assay [2] is reported as 7.5.
Turning to `N#CCC1(n2ccc(-c3ncnc4[nH]ccc34)c2)CN(C2CCN(C(=O)c3cccc(OC(F)(F)F)c3F)CC2)C1` [Example 281, {1-{1-[2-fluoro-3-(trifluoromethoxy)benzoyl]piperidin-4-yl}-3-[3-(7H-pyrrolo[2,3-d]pyrimidin-4-yl)-1H-pyrrol-1-yl]azetidin-3-yl}acetonitrile], the concentration for half-maximal inhibition (IC50) was no more than 5 nM in assay [1] and 10 to 50 nM in assay [3]. Moreover, the “IC50 Ratio JAK2/JAK1” value in assay [2] worked out at 10.0.
In the same order, the values of `N#CCC1(n2ccc(-c3ncnc4[nH]ccc34)c2)CN(C2CCN(C(=O)c3ccc(O)c(C(F)(F)F)c3)CC2)C1` [Example 282, {1-{1-[4-hydroxy-3-(trifluoromethyl)benzoyl]piperidin-4-yl}-3-[3-(7H-pyrrolo[2,3-d]pyrimidin-4-yl)-1H-pyrrol-1-yl]azetidin-3-yl}acetonitrile] are 5 to 20 nM, 10 to 50 nM and 3.4.
In the same order, the values of `N#CCC1(n2ccc(-c3ncnc4[nH]ccc34)c2)CN(C2CCN(C(=O)Nc3ccc(F)cc3C(F)(F)F)CC2)C1` [Example 283, 4-{3-(Cyanomethyl)-3-[3-(7H-pyrrolo[2,3-d]pyrimidin-4-yl)-1H-pyrrol-1-yl]azetidin-1-yl}-N-[4-fluoro-2-(trifluoromethyl)phenyl]piperidine-1-carboxamide] are no more than 5 nM, 50 to 100 nM and 35.6.
In the same order, the values of `COc1ncccc1NC(=O)N1CCC(N2CC(CC#N)(n3ccc(-c4ncnc5[nH]ccc45)c3)C2)CC1` [Example 284, 4-{3-(cyanomethyl)-3-[3-(7H-pyrrolo[2,3-d]pyrimidin-4-yl)-1H-pyrrol-1-yl]azetidin-1-yl}-N-(2-methoxypyridin-3-yl)piperidine-1-carboxamide] are no more than 5 nM, 10 to 50 nM and 5.8.
On to `Cc1nc(C(F)(F)F)ccc1NC(=O)N1CCC(N2CC(CC#N)(n3ccc(-c4ncnc5[nH]ccc45)c3)C2)CC1` [Example 285, 4-{3-(cyanomethyl)-3-[3-(7H-pyrrolo[2,3-d]pyrimidin-4-yl)-1H-pyrrol-1-yl]azetidin-1-yl}-N-[2-methyl-6-(trifluoromethyl)pyridin-3-yl]piperidine-1-carboxamide], for which the IC50 lay in the range of 5 to 20 nM in assay [1] and 10 to 50 nM in assay [3]. The “IC50 Ratio JAK2/JAK1” value in assay [2] was determined as 5.7.
In the same order, the values of `N#CCC1(n2ccc(-c3ncnc4[nH]ccc34)c2)CN(C2CCN(C(=O)Nc3ccc(F)cc3F)CC2)C1` [Example 286, 4-{3-(cyanomethyl)-3-[3-(7H-pyrrolo[2,3-d]pyrimidin-4-yl)-1H-pyrrol-1-yl]azetidin-1-yl}-N-(2,4-difluorophenyl)piperidine-1-carboxamide] are no more than 5 nM, 10 to 50 nM and 13.1.
As for `N#CCC1(n2ccc(-c3ncnc4[nH]ccc34)c2)CN(C2CCN(C(=O)Nc3ccccc3C#N)CC2)C1` [Example 287, 4-{3-(cyanomethyl)-3-[3-(7H-pyrrolo[2,3-d]pyrimidin-4-yl)-1H-pyrrol-1-yl]azetidin-1-yl}-N-(2-cyanophenyl)piperidine-1-carboxamide], the IC50 in assay [1] lay within 5 to 20 nM; in assay [3] it was 50 to 100 nM. Further, the “IC50 Ratio JAK2/JAK1” value in assay [2] was determined as 6.7.
For the molecule `COc1ccccc1NC(=O)N1CCC(N2CC(CC#N)(n3ccc(-c4ncnc5[nH]ccc45)c3)C2)CC1` [Example 288, 4-{3-(cyanomethyl)-3-[3-(7H-pyrrolo[2,3-d]pyrimidin-4-yl)-1H-pyrrol-1-yl]azetidin-1-yl}-N-(2-methoxyphenyl)piperidine-1-carboxamide], the IC50 was no more than 5 nM in assay [1] and no more than 10 nM in assay [3]. In assay [2], the “IC50 Ratio JAK2/JAK1” value was 9.0.
In the same order, the values of `N#CCC1(n2ccc(-c3ncnc4[nH]ccc34)c2)CN(C2CCN(C(=O)Nc3ncccc3C(F)(F)F)CC2)C1` [Example 290, 4-{3-(cyanomethyl)-3-[3-(7H-pyrrolo[2,3-d]pyrimidin-4-yl)-1H-pyrrol-1-yl]azetidin-1-yl}-N-[3-(trifluoromethyl)pyridin-2-yl]piperidine-1-carboxamide] are 20 to 30 nM, greater than 100 nM and 3.9.
`N#CCC1(n2ccc(-c3ncnc4[nH]ccc34)c2)CN(C2CCN(C(=O)Nc3cnccc3C(F)(F)F)CC2)C1` [Example 291, 4-{3-(cyanomethyl)-3-[3-(7H-pyrrolo[2,3-d]pyrimidin-4-yl)-1H-pyrrol-1-yl]azetidin-1-yl}-N-[4-(trifluoromethyl)pyridin-3-yl]piperidine-1-carboxamide]: the figures for the IC50 in assay [1] and in assay [3] were no more than 5 nM and 50 to 100 nM, respectively. Also, the “IC50 Ratio JAK2/JAK1” value in assay [2] turned out to be 20.3.
For `N#CCC1(n2ccc(-c3ncnc4[nH]ccc34)c2)CN(C2CCN(C(=O)Nc3ncccc3F)CC2)C1` [Example 292, 4-{3-(cyanomethyl)-3-[3-(7H-pyrrolo[2,3-d]pyrimidin-4-yl)-1H-pyrrol-1-yl]azetidin-1-yl}-N-(3-fluoropyridin-2-yl)piperidine-1-carboxamide], the IC50 in assay [1] was no more than 5 nM; in assay [3], 10 to 50 nM. In assay [2], the “IC50 Ratio JAK2/JAK1” value stood at 9.1.
